Measurements from ChEMBL document CHEMBL4715879, “Total Synthesis of the Antitumor-Antitubercular 2,6'-Bijuglone Natural Product Diospyrin and Its 3,6'-Isomer” (J Nat Prod, 2020).

Legend:
[1] = Inhibition of Mycobacterium tuberculosis DNA gyrase assessed as reduction in DNA supercoiled DNA formation incubated for 30 mins by […] analysis
[2] = Antiproliferative activity against mouse NS-1 cells assessed as reduction in cell viability after 48 hrs by resazurin dye based assay; format: functional; conditions: NS1, 48 h
NFF [3] = assay: Cytotoxicity against human NFF cells assessed as reduction in cell viability after 48 hrs by resazurin dye based assay
[4] = Selectivity index, ratio of IC50 for cytotoxicity against human NFF cells to […] for antiproliferative activity against mouse NS-1 cells
NFF [5] = assay: Cytotoxicity against human NFF cells assessed as reduction in cell viability at 1 mM after 48 hrs by resazurin dye based assay relative to control; conditions: 1000 µM

SMILES	IC50 [1] [µM]	IC50 [2] [µM]	IC50 (NFF [3]) [µM]	Ratio IC50 [4]	Activity (NFF [5]) [%]
Cc1cc2c(c(O)c1-c1c(C)cc(O)c3c1C(=O)C=CC3=O)C(=O)C=CC2=O	100				
COc1cc(C)cc2c1C(=O)C=C(c1c(C)cc3c(c1OC)C(=O)C=CC3=O)C2=O		0.8	25.7	31	
Cc1cc(O)c2c(c1)C(=O)C=C(c1c(C)cc3c(c1O)C(=O)C=CC3=O)C2=O		1.8	31.8	14	
O=C(O)c1cn(C2CC2)c2cc(N3CCNCC3)c(F)cc2c1=O [CIPROFLOXACIN]	10				
Cc1cc(O)c2c(c1)C(=O)C(c1c(C)cc3c(c1O)C(=O)C=CC3=O)=CC2=O [DIOSPYRIN]	15	0.8	5.8	10	
O=c1[nH]cc(F)c(=O)[nH]1 [FLUOROURACIL]		2.8		>352	13
Cc1cc(O)c2c(c1)C(=O)C=C(c1c(C)cc(O)c3c1C(=O)C=CC3=O)C2=O [NEODIOSPYRIN]	50				
Cc1cc(O)c2c(c1)C(=O)C=CC2=O [RAMENTACEONE]		0.5	7.6	15	
